Test results from patent publication US20250235455A1, “AQUEOUS TICAGRELOR SOLUTIONS, METHOD OF MANUFACTURING AND USES” (HYLORIS DEVELOPMENTS SA, priority 2022, published 2025).

How the values were obtained:
Assay type in all cases: physicochemical
[1] = Storage stability in amber glass vials at pH 7, 7.5 and 8, 19 mM buffer; details: for Acetal impurity / Amine impurity / Description / Regiomer / Sum Impurities >0.05 / Total impurity / Triol impurity / pH / Assay: HPβCD 40% w/w; for Assay: in %
Experimental: To optimize the HPβCD concentration and the pH of the solution for intravenous use, a 12 week/3 months stability study was conducted. […] Its stability was tested at regular intervals.
A comparison of stability profile at 3 different pH—7, 7.5 and 8—was carried out as below, the manufacturing process for all 3 formulations was kept constant with buffer strength at 19 mM.

[2] = Diluent tests of 5 mg/ml ticagrelor-cyclodextrin solutions; details: for Appearance, undiluted: 5 mg/ml; for Appearance in 5% dextrose / Appearance in NaCl 0.9%: diluted to 0.1 mg/ml
Experimental: 5 mg/ml ticagrelor-cyclodextrin solutions with varying amounts of HPβCD were diluted with normal saline, 5% dextrose solution or Ringer's lactate solution. The stability was screened.

[3] = Solubility of ticagrelor in aqueous vitamin E TPGS solutions
Experimental: Aqueous ticagrelor solutions were prepared using vitamin E TPGS as solubilizer for ticagrelor. Water soluble vitamin E TPGS was added to water to obtain different concentrations of 2.5 and 5.0 and 10.0 w/v % aqueous vitamin E TPGS solutions. To these solutions, kept at a temperate of 45° C.+/−5° C., portions of ticagrelor were gradually added.
In the experiment summarized in Table 29, 3 mg ticagrelor portions were added step-by-step to a 50 ml aqueous vitamin E TPGS solution (1st stage).
20 ml of each diluent were then used in a 2nd stage study. To 20 ml of each diluent 10 mg ticagrelor portions were added. This was reduced to 5 mg when the dissolution was taking longer.

[4] = pH and osmolality determination in undiluted batches; details: 19 mM phosphate buffer pH 7.5
Source text: From the results obtained in Example 4 it follows that the concentration of excipients may be such that the resulting ticagrelor solution is hypertonic. The osmolality and pH of several batches was checked.

[5] = 19 mM pH 7 Phosphate Buffer, 1 M
[6] = 19 mM pH 7 Phosphate Buffer, 2 M
[7] = 19 mM pH 7 Phosphate Buffer, 3 M
[8] = 19 mM pH 7 Phosphate Buffer, T0
[9] = 19 mM pH 7.5 Phosphate Buffer, 1 M
[10] = 19 mM pH 7.5 Phosphate Buffer, 2 M
[11] = 19 mM pH 7.5 Phosphate Buffer, 3 M
[12] = 19 mM pH 7.5 Phosphate Buffer, T0
[13] = 19 mM pH 8 Phosphate buffer, 1 M
[14] = 19 mM pH 8 Phosphate buffer, 2 M
[15] = 19 mM pH 8 Phosphate buffer, 3 M
[16] = 19 mM pH 8 Phosphate buffer, T0

Q: Which Acetal impurity [1, 5] does the source give for `CCCSc1nc(N[C@@H]2C[C@H]2c2ccc(F)c(F)c2)c2nnn([C@@H]3C[C@H](OCCO)[C@@H](O)[C@H]3O)c2n1` [Ticagrelor, (1S,2S,3R,5S)-3-{7-[(1R,2S)-2-(3,4-difluorophenyl)cyclopropylamino]5-(propylthio)-3H-(1,2,3)triazolo (4,5-D)pyrimidin-3-yl}-5-(2 hydroxyethoxy)cyclopentane-1,2-diol] here?
A: 0.05%

Q: And the Amine impurity [1, 5]?
A: 0.04%

Q: And the Description [1, 5]?
A: clear

Q: And the Regiomer [1, 5]?
A: 0.03%

Q: And the “Sum Impurities >0.05” value [1, 5]?
A: 0.05%

Q: What about the Total impurity [1, 5] of the same compound?
A: 0.27%

Q: What about the Triol impurity [1, 5] of the same compound?
A: 0.02%

Q: What about the pH [1, 5] of the same compound?
A: 7.34

Q: What about the Assay [1, 5] of the same compound?
A: 99.73

Q: What about the Acetal impurity [1, 6] of the same compound?
A: 0.05%

Q: What about the Amine impurity [1, 6] of the same compound?
A: 0.04%

Q: What about the Description [1, 6] of the same compound?
A: clear

Q: What about the Regiomer [1, 6] of the same compound?
A: 0.06%

Q: And the “Sum Impurities >0.05” value [1, 6]?
A: 0.11%

Q: What about the Total impurity [1, 6] of the same compound?
A: 0.34%

Q: And the Triol impurity [1, 6]?
A: 0.04%

Q: What about the pH [1, 6] of the same compound?
A: 7.34

Q: What about the Assay [1, 6] of the same compound?
A: 99.81

Q: And the Acetal impurity [1, 7]?
A: 0.05%

Q: What about the Amine impurity [1, 7] of the same compound?
A: 0.06%

Q: And the Description [1, 7]?
A: clear

Q: What about the Regiomer [1, 7] of the same compound?
A: 0.11%

Q: What about the “Sum Impurities >0.05” value [1, 7] of the same compound?
A: 0.22%

Q: What about the Total impurity [1, 7] of the same compound?
A: 0.40%

Q: What about the Triol impurity [1, 7] of the same compound?
A: 0.04%

Q: And the pH [1, 7]?
A: 7.30

Q: What about the Assay [1, 7] of the same compound?
A: 98.51

Q: And the Acetal impurity [1, 8]?
A: 0.05%

Q: And the Amine impurity [1, 8]?
A: 0.04%

Q: And the Description [1, 8]?
A: clear

Q: What about the Regiomer [1, 8] of the same compound?
A: 0.00%

Q: What about the “Sum Impurities >0.05” value [1, 8] of the same compound?
A: 0.22%

Q: And the Total impurity [1, 8]?
A: 0.41%

Q: And the Triol impurity [1, 8]?
A: 0.05%

Q: What about the pH [1, 8] of the same compound?
A: 7.33

Q: What about the Assay [1, 8] of the same compound?
A: 98.95

Q: What about the Acetal impurity [1, 9] of the same compound?
A: 0.05%

Q: And the Amine impurity [1, 9]?
A: 0.05%

Q: What about the Description [1, 9] of the same compound?
A: clear

Q: And the Regiomer [1, 9]?
A: 0.01%

Q: What about the “Sum Impurities >0.05” value [1, 9] of the same compound?
A: 0.14%

Q: And the Total impurity [1, 9]?
A: 0.32%

Q: And the Triol impurity [1, 9]?
A: 0.05%

Q: What about the pH [1, 9] of the same compound?
A: 7.50

Q: And the Assay [1, 9]?
A: 104.47

Q: What about the Acetal impurity [1, 10] of the same compound?
A: 0.05%

Q: And the Amine impurity [1, 10]?
A: 0.05%

Q: And the Description [1, 10]?
A: clear

Q: And the Regiomer [1, 10]?
A: 0.04%

Q: What about the “Sum Impurities >0.05” value [1, 10] of the same compound?
A: 0.15%

Q: What about the Total impurity [1, 10] of the same compound?
A: 0.29%

Q: And the Triol impurity [1, 10]?
A: 0.05%

Q: What about the pH [1, 10] of the same compound?
A: 7.48

Q: And the Assay [1, 10]?
A: 102.59

Q: And the Acetal impurity [1, 11]?
A: 0.05%

Q: And the Amine impurity [1, 11]?
A: 0.05%

Q: And the Description [1, 11]?
A: clear

Q: What about the Regiomer [1, 11] of the same compound?
A: 0.08%

Q: What about the “Sum Impurities >0.05” value [1, 11] of the same compound?
A: 0.23%

Q: What about the Total impurity [1, 11] of the same compound?
A: 0.41%

Q: What about the Triol impurity [1, 11] of the same compound?
A: 0.04%

Q: What about the pH [1, 11] of the same compound?
A: 7.55

Q: And the Assay [1, 11]?
A: 102.31

Q: And the Acetal impurity [1, 12]?
A: 0.05%

Q: What about the Amine impurity [1, 12] of the same compound?
A: 0.04%

Q: What about the Description [1, 12] of the same compound?
A: clear

Q: What about the Regiomer [1, 12] of the same compound?
A: 0.00%

Q: What about the “Sum Impurities >0.05” value [1, 12] of the same compound?
A: 0.11%

Q: And the Total impurity [1, 12]?
A: 0.31%

Q: What about the Triol impurity [1, 12] of the same compound?
A: 0.04%

Q: What about the pH [1, 12] of the same compound?
A: 7.40

Q: And the Assay [1, 12]?
A: 104.27

Q: And the Acetal impurity [1, 13]?
A: 0.05%

Q: And the Amine impurity [1, 13]?
A: 0.05%

Q: And the Description [1, 13]?
A: clear

Q: What about the Regiomer [1, 13] of the same compound?
A: 0.01%

Q: What about the “Sum Impurities >0.05” value [1, 13] of the same compound?
A: 0.09%

Q: What about the Total impurity [1, 13] of the same compound?
A: 0.26%

Q: And the Triol impurity [1, 13]?
A: 0.03%

Q: What about the pH [1, 13] of the same compound?
A: 8.10

Q: What about the Assay [1, 13] of the same compound?
A: 105.88

Q: And the Acetal impurity [1, 14]?
A: 0.05%

Q: And the Amine impurity [1, 14]?
A: 0.05%

Q: And the Description [1, 14]?
A: clear

Q: And the Regiomer [1, 14]?
A: 0.03%

Q: And the “Sum Impurities >0.05” value [1, 14]?
A: 0.15%

Q: What about the Total impurity [1, 14] of the same compound?
A: 0.32%

Q: And the Triol impurity [1, 14]?
A: 0.05%

Q: And the pH [1, 14]?
A: 8.04

Q: What about the Assay [1, 14] of the same compound?
A: 105.46

Q: What about the Acetal impurity [1, 15] of the same compound?
A: 0.05%

Q: And the Amine impurity [1, 15]?
A: 0.07%

Q: And the Description [1, 15]?
A: clear

Q: And the Regiomer [1, 15]?
A: 0.06%

Q: And the “Sum Impurities >0.05” value [1, 15]?
A: 0.23%

Q: What about the Total impurity [1, 15] of the same compound?
A: 0.37%

Q: And the Triol impurity [1, 15]?
A: 0.05%

Q: And the pH [1, 15]?
A: 8.03

Q: What about the Assay [1, 15] of the same compound?
A: 104.46

Q: What about the Acetal impurity [1, 16] of the same compound?
A: 0.05%

Q: And the Amine impurity [1, 16]?
A: 0.04%

Q: And the Description [1, 16]?
A: clear

Q: And the Regiomer [1, 16]?
A: 0.00%

Q: What about the “Sum Impurities >0.05” value [1, 16] of the same compound?
A: 0.25%

Q: What about the Total impurity [1, 16] of the same compound?
A: 0.43%

Q: And the Triol impurity [1, 16]?
A: 0.06%

Q: What about the pH [1, 16] of the same compound?
A: 8.07

Q: And the Assay [1, 16]?
A: 103.25

Q: And the “Stability of solution in HPβCD” value ([1]; pH range of 7 to 8)?
A: stable

Q: And the “Appearance, undiluted” value ([2]; HPβCD 22.5% w/w)?
A: Turbid; clear after heating to 40 °C

Q: And the “Appearance, undiluted” value ([2]; HPβCD 25.0% w/w)?
A: Turbid; clear after heating to 40 °C

Q: And the “Appearance, undiluted” value ([2]; HPβCD 27.5% w/w)?
A: Turbid; clear after heating to 40 °C

Q: And the “Appearance, undiluted” value ([2]; HPβCD 30.0% w/w)?
A: Clear solution

Q: And the “Appearance, undiluted” value ([2]; HPβCD 32.5% w/w)?
A: Clear solution

Q: What about the “Appearance in 5% dextrose” value ([2]; HPβCD 22.5% w/w) of the same compound?
A: Clear solution

Q: What about the “Appearance in NaCl 0.9%” value ([2]; HPβCD 22.5% w/w) of the same compound?
A: Turbid

Q: What about the “Appearance in 5% dextrose” value ([2]; HPβCD 25.0% w/w) of the same compound?
A: Clear solution

Q: And the “Appearance in NaCl 0.9%” value ([2]; HPβCD 25.0% w/w)?
A: Turbid

Q: What about the “Appearance in 5% dextrose” value ([2]; HPβCD 27.5% w/w) of the same compound?
A: Clear solution

Q: And the “Appearance in NaCl 0.9%” value ([2]; HPβCD 27.5% w/w)?
A: Turbid

Q: And the “Appearance in 5% dextrose” value ([2]; HPβCD 30.0% w/w)?
A: Clear solution

Q: What about the “Appearance in NaCl 0.9%” value ([2]; HPβCD 30.0% w/w) of the same compound?
A: Turbid

Q: And the “Appearance in 5% dextrose” value ([2]; HPβCD 32.5% w/w)?
A: Clear solution

Q: What about the “Appearance in NaCl 0.9%” value ([2]; HPβCD 32.5% w/w) of the same compound?
A: Clear solution

Q: And the Appearance with diluent ([2]; Normal saline and Ringer's lactate solution as diluent)?
A: turbid solutions

Q: And the “Time for 10 mg ticagrelor to dissolve” value [3]?
A: 5 to 10 min

Q: What about the Assay ([4]; HPβCD 22.5% w/w) of the same compound?
A: 98.15%

Q: What about the Osmolality undiluted ([4]; HPβCD 22.5% w/w) of the same compound?
A: 392 mOsm/kg

Q: And the Total Impurities ([4]; HPβCD 22.5% w/w)?
A: 0.39%

Q: What about the pH undiluted ([4]; HPβCD 22.5% w/w) of the same compound?
A: 7.67

Q: What about the Assay ([4]; HPβCD 25.0% w/w) of the same compound?
A: 103.23%

Q: What about the Osmolality undiluted ([4]; HPβCD 25.0% w/w) of the same compound?
A: 493 mOsm/kg

Q: And the Total Impurities ([4]; HPβCD 25.0% w/w)?
A: 0.41%

Q: And the pH undiluted ([4]; HPβCD 25.0% w/w)?
A: 7.69

Q: And the Assay ([4]; HPβCD 27.5% w/w)?
A: 104.27%

Q: What about the Osmolality undiluted ([4]; HPβCD 27.5% w/w) of the same compound?
A: 549 mOsm/kg

Q: What about the Total Impurities ([4]; HPβCD 27.5% w/w) of the same compound?
A: 0.42%

Q: And the pH undiluted ([4]; HPβCD 27.5% w/w)?
A: 7.69

Q: And the Assay ([4]; HPβCD 30.0% w/w)?
A: 107.64%

Q: And the Osmolality undiluted ([4]; HPβCD 30.0% w/w)?
A: 638 mOsm/kg

Q: What about the Total Impurities ([4]; HPβCD 30.0% w/w) of the same compound?
A: 0.44%

Q: And the pH undiluted ([4]; HPβCD 30.0% w/w)?
A: 7.74

Q: What about the Assay ([4]; HPβCD 32.5% w/w) of the same compound?
A: 99.26%

Q: What about the Osmolality undiluted ([4]; HPβCD 32.5% w/w) of the same compound?
A: 813 mOsm/kg

Q: And the Total Impurities ([4]; HPβCD 32.5% w/w)?
A: 0.41%

Q: What about the pH undiluted ([4]; HPβCD 32.5% w/w) of the same compound?
A: 7.68
